≈ marks a conversion by molar mass, not a printed value. Where two headings read alike, the source gives them in different places.
Legend:
Experiment in all cases: Antimicrobial susceptibility testing (MIC), BD Phoenix Automated Microbiology System; as to interpretation of the result: key: R, resistant; I, intermediate; S, susceptible; R*: *As a rule, when ESBL is detected, an interpretation of susceptible or intermediate for penicillins, cephalosporins and aztreonam is reported as resistant
Type in all cases: cell-based
Escherichia coli = settings: for MIC: Escherichia coli
Klebsiella ssp. = settings: for MIC: Klebsiella
Acinetobacter baumannii = settings: for MIC: Acinetobacter baumannii
Pseudomonas aeruginosa = settings: for MIC: Pseudomonas aeruginosa
[1] = read-out: minimal inhibiting concentration, Escherichia coli isolate 1
[2] = read-out: minimal inhibiting concentration, Escherichia coli isolate 2
[3] = read-out: minimal inhibiting concentration, Escherichia coli isolate 3
[4] = read-out: minimal inhibiting concentration, Escherichia coli isolate 4
[5] = read-out: minimal inhibiting concentration, Escherichia coli isolate 5
[6] = read-out: minimal inhibiting concentration, Klebsiella ssp. isolate 1
[7] = read-out: minimal inhibiting concentration, Klebsiella ssp. isolate 2
[8] = read-out: minimal inhibiting concentration, Klebsiella ssp. isolate 3
[9] = read-out: minimal inhibiting concentration, Klebsiella ssp. isolate 4
[10] = read-out: minimal inhibiting concentration, Klebsiella ssp. isolate 5
[11] = Acinetobacter baumannii isolate 1
[12] = Acinetobacter baumannii isolate 2
[13] = Acinetobacter baumannii isolate 3
[14] = Acinetobacter baumannii isolate 4
[15] = Acinetobacter baumannii isolate 5
[16] = read-out: minimal inhibiting concentration, Acinetobacter baumannii isolate 1
[17] = read-out: minimal inhibiting concentration, Acinetobacter baumannii isolate 2
[18] = read-out: minimal inhibiting concentration, Acinetobacter baumannii isolate 3
[19] = read-out: minimal inhibiting concentration, Acinetobacter baumannii isolate 4
[20] = read-out: minimal inhibiting concentration, Acinetobacter baumannii isolate 5
[21] = Pseudomonas aeruginosa isolate 1
[22] = Pseudomonas aeruginosa isolate 2
[23] = Pseudomonas aeruginosa isolate 3
[24] = Pseudomonas aeruginosa isolate 4
[25] = Pseudomonas aeruginosa isolate 5
[26] = read-out: minimal inhibiting concentration, Pseudomonas aeruginosa isolate 1
[27] = read-out: minimal inhibiting concentration, Pseudomonas aeruginosa isolate 2
[28] = read-out: minimal inhibiting concentration, Pseudomonas aeruginosa isolate 3
[29] = read-out: minimal inhibiting concentration, Pseudomonas aeruginosa isolate 4
[30] = read-out: minimal inhibiting concentration, Pseudomonas aeruginosa isolate 5

O=C1CN(/N=C/c2ccc([N+](=O)[O-])o2)C(=O)N1 [Nf., Nitrofurantoin]
interpretation of the result (Escherichia coli; Escherichia coli isolate 1): S
interpretation of the result (Escherichia coli; Escherichia coli isolate 2): S
interpretation of the result (Escherichia coli; Escherichia coli isolate 3): S
interpretation of the result (Escherichia coli; Escherichia coli isolate 4): S
interpretation of the result (Escherichia coli; Escherichia coli isolate 5): S
MIC (Escherichia coli; [1]): 32 µg/mL (≈ 134 µM)
MIC (Escherichia coli; [2]): ≤ 16 µg/mL
MIC (Escherichia coli; [3]): ≤ 16 µg/mL
MIC (Escherichia coli; [4]): ≤ 16 µg/mL
MIC (Escherichia coli; [5]): ≤ 16 µg/mL
interpretation of the result (Klebsiella ssp.; Klebsiella ssp. isolate 1): R
interpretation of the result (Klebsiella ssp.; Klebsiella ssp. isolate 2): R
interpretation of the result (Klebsiella ssp.; Klebsiella ssp. isolate 3): R
interpretation of the result (Klebsiella ssp.; Klebsiella ssp. isolate 4): R
interpretation of the result (Klebsiella ssp.; Klebsiella ssp. isolate 5): R
MIC (Klebsiella ssp.; [6]): > 64 µg/mL
MIC (Klebsiella ssp.; [7]): > 64 µg/mL
MIC (Klebsiella ssp.; [8]): > 64 µg/mL
MIC (Klebsiella ssp.; [9]): > 64 µg/mL
MIC (Klebsiella ssp.; [10]): > 64 µg/mL
interpretation of the result (Acinetobacter baumannii; [11]): R
interpretation of the result (Acinetobacter baumannii; [12]): R
interpretation of the result (Acinetobacter baumannii; [13]): R
interpretation of the result (Acinetobacter baumannii; [14]): R
interpretation of the result (Acinetobacter baumannii; [15]): R
MIC (Acinetobacter baumannii; [16]): > 64 µg/mL
MIC (Acinetobacter baumannii; [17]): > 64 µg/mL
MIC (Acinetobacter baumannii; [18]): > 64 µg/mL
MIC (Acinetobacter baumannii; [19]): > 64 µg/mL
MIC (Acinetobacter baumannii; [20]): > 64 µg/mL
interpretation of the result (Pseudomonas aeruginosa; [21]): R
interpretation of the result (Pseudomonas aeruginosa; [22]): R
interpretation of the result (Pseudomonas aeruginosa; [23]): R
interpretation of the result (Pseudomonas aeruginosa; [24]): R
interpretation of the result (Pseudomonas aeruginosa; [25]): R
MIC (Pseudomonas aeruginosa; [26]): > 64 µg/mL
MIC (Pseudomonas aeruginosa; [27]): > 64 µg/mL
MIC (Pseudomonas aeruginosa; [28]): > 64 µg/mL
MIC (Pseudomonas aeruginosa; [29]): > 64 µg/mL
MIC (Pseudomonas aeruginosa; [30]): > 64 µg/mL

C[C@@H](O)[C@H]1C(=O)N2C(C(=O)O)=C(SCCN=CN)C[C@H]12 [Im., Imipenem]
interpretation of the result (Escherichia coli; Escherichia coli isolate 1): S
interpretation of the result (Escherichia coli; Escherichia coli isolate 2): S
interpretation of the result (Escherichia coli; Escherichia coli isolate 3): S
interpretation of the result (Escherichia coli; Escherichia coli isolate 4): S
interpretation of the result (Escherichia coli; Escherichia coli isolate 5): S
MIC (Escherichia coli; [1]): ≤ 1 µg/mL
MIC (Escherichia coli; [2]): ≤ 1 µg/mL
MIC (Escherichia coli; [3]): ≤ 1 µg/mL
MIC (Escherichia coli; [4]): ≤ 1 µg/mL
MIC (Escherichia coli; [5]): ≤ 1 µg/mL
interpretation of the result (Klebsiella ssp.; Klebsiella ssp. isolate 1): S
interpretation of the result (Klebsiella ssp.; Klebsiella ssp. isolate 2): S
interpretation of the result (Klebsiella ssp.; Klebsiella ssp. isolate 3): S
interpretation of the result (Klebsiella ssp.; Klebsiella ssp. isolate 4): S
interpretation of the result (Klebsiella ssp.; Klebsiella ssp. isolate 5): S
MIC (Klebsiella ssp.; [6]): ≤ 1 µg/mL
MIC (Klebsiella ssp.; [7]): ≤ 1 µg/mL
MIC (Klebsiella ssp.; [8]): ≤ 1 µg/mL
MIC (Klebsiella ssp.; [9]): ≤ 1 µg/mL
MIC (Klebsiella ssp.; [10]): ≤ 1 µg/mL
interpretation of the result (Acinetobacter baumannii; [11]): S
interpretation of the result (Acinetobacter baumannii; [12]): R
interpretation of the result (Acinetobacter baumannii; [13]): R
interpretation of the result (Acinetobacter baumannii; [14]): S
interpretation of the result (Acinetobacter baumannii; [15]): R
MIC (Acinetobacter baumannii; [16]): 2 µg/mL (≈ 6.68 µM)
MIC (Acinetobacter baumannii; [17]): > 8 µg/mL
MIC (Acinetobacter baumannii; [18]): > 8 µg/mL
MIC (Acinetobacter baumannii; [19]): 2 µg/mL (≈ 6.68 µM)
MIC (Acinetobacter baumannii; [20]): > 8 µg/mL
interpretation of the result (Pseudomonas aeruginosa; [21]): R
interpretation of the result (Pseudomonas aeruginosa; [22]): R
interpretation of the result (Pseudomonas aeruginosa; [23]): R
interpretation of the result (Pseudomonas aeruginosa; [24]): R
interpretation of the result (Pseudomonas aeruginosa; [25]): S
MIC (Pseudomonas aeruginosa; [26]): > 8 µg/mL
MIC (Pseudomonas aeruginosa; [27]): > 8 µg/mL
MIC (Pseudomonas aeruginosa; [28]): > 8 µg/mL
MIC (Pseudomonas aeruginosa; [29]): > 8 µg/mL
MIC (Pseudomonas aeruginosa; [30]): 2 µg/mL (≈ 6.68 µM)

CC(C)(O/N=C(\C(=O)N[C@@H]1C(=O)N2C(C(=O)[O-])=C(C[n+]3ccccc3)CS[C@H]12)c1csc(N)n1)C(=O)O [Ceft., Ceftazidime]
interpretation of the result (Escherichia coli; Escherichia coli isolate 1): R
interpretation of the result (Escherichia coli; Escherichia coli isolate 2): R
interpretation of the result (Escherichia coli; Escherichia coli isolate 3): R
interpretation of the result (Escherichia coli; Escherichia coli isolate 4): R
MIC (Escherichia coli; Escherichia coli isolate 1, read-out: minimal inhibiting concentration): > 16 µg/mL
MIC (Escherichia coli; Escherichia coli isolate 2, read-out: minimal inhibiting concentration): > 16 µg/mL
MIC (Escherichia coli; Escherichia coli isolate 3, read-out: minimal inhibiting concentration): > 16 µg/mL
MIC (Escherichia coli; Escherichia coli isolate 4, read-out: minimal inhibiting concentration): > 16 µg/mL
MIC (Escherichia coli; Escherichia coli isolate 5, read-out: minimal inhibiting concentration): 4 µg/mL (≈ 7.32 µM)
interpretation of the result (Klebsiella ssp.; Klebsiella ssp. isolate 1): R
interpretation of the result (Klebsiella ssp.; Klebsiella ssp. isolate 5): R
MIC (Klebsiella ssp.; Klebsiella ssp. isolate 1, read-out: minimal inhibiting concentration): > 16 µg/mL
MIC (Klebsiella ssp.; Klebsiella ssp. isolate 2, read-out: minimal inhibiting concentration): > 2 µg/mL
MIC (Klebsiella ssp.; Klebsiella ssp. isolate 3, read-out: minimal inhibiting concentration): > 2 µg/mL
MIC (Klebsiella ssp.; Klebsiella ssp. isolate 4, read-out: minimal inhibiting concentration): > 2 µg/mL
MIC (Klebsiella ssp.; Klebsiella ssp. isolate 5, read-out: minimal inhibiting concentration): > 16 µg/mL
interpretation of the result (Acinetobacter baumannii; [11]): R
interpretation of the result (Acinetobacter baumannii; [12]): R
interpretation of the result (Acinetobacter baumannii; [13]): S
interpretation of the result (Acinetobacter baumannii; [14]): R
interpretation of the result (Acinetobacter baumannii; [15]): R
MIC (Acinetobacter baumannii; Acinetobacter baumannii isolate 1, read-out: minimal inhibiting concentration): > 16 µg/mL
MIC (Acinetobacter baumannii; Acinetobacter baumannii isolate 2, read-out: minimal inhibiting concentration): > 16 µg/mL
MIC (Acinetobacter baumannii; Acinetobacter baumannii isolate 3, read-out: minimal inhibiting concentration): 8 µg/mL (≈ 14.6 µM)
MIC (Acinetobacter baumannii; Acinetobacter baumannii isolate 4, read-out: minimal inhibiting concentration): > 16 µg/mL
MIC (Acinetobacter baumannii; Acinetobacter baumannii isolate 5, read-out: minimal inhibiting concentration): > 16 µg/mL
interpretation of the result (Pseudomonas aeruginosa; [21]): R
interpretation of the result (Pseudomonas aeruginosa; [22]): S
interpretation of the result (Pseudomonas aeruginosa; [23]): R
interpretation of the result (Pseudomonas aeruginosa; [24]): R
interpretation of the result (Pseudomonas aeruginosa; [25]): R
MIC (Pseudomonas aeruginosa; Pseudomonas aeruginosa isolate 1, read-out: minimal inhibiting concentration): > 16 µg/mL
MIC (Pseudomonas aeruginosa; Pseudomonas aeruginosa isolate 2, read-out: minimal inhibiting concentration): 8 µg/mL (≈ 14.6 µM)
MIC (Pseudomonas aeruginosa; Pseudomonas aeruginosa isolate 3, read-out: minimal inhibiting concentration): > 16 µg/mL
MIC (Pseudomonas aeruginosa; Pseudomonas aeruginosa isolate 4, read-out: minimal inhibiting concentration): > 16 µg/mL
MIC (Pseudomonas aeruginosa; Pseudomonas aeruginosa isolate 5, read-out: minimal inhibiting concentration): > 16 µg/mL

From patent publication US9529005B2, “Modulating bacterial MAM polypeptides in pathogenic disease” (priority 2011, dated 2016)
